Laboratory results published in ChEMBL document CHEMBL3745644, “The synthesis and BK channel-opening activity of N-acylaminoalkyloxime derivatives of dehydroabietic acid” (Bioorg Med Chem Lett, 2016).

Each compound was assayed against Calcium-activated potassium channel subunit alpha-1 (Homo sapiens) (UniProt Q12791) (assay: Induction of step pulse-induced human BKalpha channel opening activity expressed in CHO-K1 cells at 30 uM by population patch clamp method relative to control).
Assay type: cell-based

Sequence of Calcium-activated potassium channel subunit alpha-1 (Homo sapiens) (Q12791 whole entry): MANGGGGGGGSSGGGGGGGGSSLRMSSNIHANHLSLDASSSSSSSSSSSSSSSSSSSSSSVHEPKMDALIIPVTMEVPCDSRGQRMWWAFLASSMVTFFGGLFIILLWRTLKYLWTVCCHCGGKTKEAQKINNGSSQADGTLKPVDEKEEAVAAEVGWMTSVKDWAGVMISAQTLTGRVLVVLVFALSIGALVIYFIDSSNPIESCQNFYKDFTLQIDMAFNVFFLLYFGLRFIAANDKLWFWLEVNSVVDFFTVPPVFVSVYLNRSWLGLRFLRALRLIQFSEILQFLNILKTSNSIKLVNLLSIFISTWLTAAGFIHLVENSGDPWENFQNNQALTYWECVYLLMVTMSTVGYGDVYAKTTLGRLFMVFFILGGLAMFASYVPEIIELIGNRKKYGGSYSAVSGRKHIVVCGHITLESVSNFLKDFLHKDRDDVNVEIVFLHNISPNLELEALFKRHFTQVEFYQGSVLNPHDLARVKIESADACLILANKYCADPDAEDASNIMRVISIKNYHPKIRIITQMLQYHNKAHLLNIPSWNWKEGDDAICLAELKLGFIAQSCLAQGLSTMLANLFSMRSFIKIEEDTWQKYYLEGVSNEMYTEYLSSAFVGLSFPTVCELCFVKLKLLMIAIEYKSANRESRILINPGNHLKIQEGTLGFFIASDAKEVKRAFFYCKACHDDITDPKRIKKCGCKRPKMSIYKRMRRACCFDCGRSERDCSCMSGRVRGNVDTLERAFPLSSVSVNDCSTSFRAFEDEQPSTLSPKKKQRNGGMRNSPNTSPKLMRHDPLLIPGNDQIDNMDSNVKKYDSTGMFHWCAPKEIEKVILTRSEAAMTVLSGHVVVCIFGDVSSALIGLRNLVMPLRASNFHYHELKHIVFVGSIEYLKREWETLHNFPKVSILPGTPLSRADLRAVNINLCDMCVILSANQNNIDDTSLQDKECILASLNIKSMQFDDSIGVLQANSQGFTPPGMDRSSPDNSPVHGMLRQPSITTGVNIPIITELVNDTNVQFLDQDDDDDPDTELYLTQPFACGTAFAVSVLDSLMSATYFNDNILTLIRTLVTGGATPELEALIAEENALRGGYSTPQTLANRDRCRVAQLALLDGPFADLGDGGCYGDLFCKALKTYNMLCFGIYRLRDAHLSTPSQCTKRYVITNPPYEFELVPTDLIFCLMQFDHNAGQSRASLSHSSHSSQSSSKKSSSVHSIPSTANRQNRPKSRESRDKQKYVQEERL

Compound	Activity
CC(C)c1cc2c(cc1Br)[C@@]1(C)CCC[C@@](C)(C(=O)O)[C@@H]1C/C2=N\OCCNC(=O)c1ccc(C(F)(F)F)cc1	107%
CC(C)c1cc2c(cc1Br)[C@@]1(C)CCC[C@@](C)(C(=O)O)[C@@H]1C/C2=N\OCCNC(=O)c1ccc(Br)s1	107%
CC(C)c1cc2c(cc1Br)[C@@]1(C)CCC[C@@](C)(C(=O)O)[C@@H]1C/C2=N\OCCNC(=O)c1c(F)c(F)c(F)c(F)c1F	136%
Cc1ccc(C(=O)NCCO/N=C2\C[C@H]3[C@](C)(C(=O)O)CCC[C@]3(C)c3cc(Br)c(C(C)C)cc32)s1	101%
CC(=O)NCCO/N=C1\C[C@H]2[C@](C)(C(=O)O)CCC[C@]2(C)c2cc(Br)c(C(C)C)cc21	140%
CC(C)c1cc2c(cc1Br)[C@@]1(C)CCC[C@@](C)(C(=O)O)[C@@H]1C/C2=N\OCCNC(=O)c1cc(Br)cs1	106%
CCCCCC(=O)NCCO/N=C1\C[C@H]2[C@](C)(C(=O)O)CCC[C@]2(C)c2cc(Br)c(C(C)C)cc21	146%
COc1ccccc1C(=O)NCCO/N=C1\C[C@H]2[C@](C)(C(=O)O)CCC[C@]2(C)c2cc(Br)c(C(C)C)cc21	101%
CC(C)c1cc2c(cc1Br)[C@@]1(C)CCC[C@@](C)(C(=O)O)[C@@H]1C/C2=N\OCCNC(=O)c1ccccn1	108%
CC(C)C(=O)NCCO/N=C1\C[C@H]2[C@](C)(C(=O)O)CCC[C@]2(C)c2cc(Br)c(C(C)C)cc21	142%
CC(C)c1cc2c(cc1Br)[C@@]1(C)CCC[C@@](C)(C(=O)O)[C@@H]1C/C2=N\OCCNC(=O)c1ccccc1F	118%
COc1ccc(C(=O)NCCO/N=C2\C[C@H]3[C@](C)(C(=O)O)CCC[C@]3(C)c3cc(Br)c(C(C)C)cc32)cc1	102%
CC(C)c1ccc2c(c1)/C(=N/OCCNC(=O)c1cccs1)C[C@H]1[C@](C)(C(=O)O)CCC[C@]21C	106%
CC(C)c1cc2c(cc1Br)[C@@]1(C)CCC[C@@](C)(C(=O)O)[C@@H]1C/C2=N\OCCNC(=O)c1nccs1	204%
CC(C)c1cc2c(cc1Br)[C@@]1(C)CCC[C@@](C)(C(=O)O)[C@@H]1C/C2=N\OCCN	98.6%
CC(C)c1cc2c(cc1Br)[C@@]1(C)CCC[C@@](C)(C(=O)O)[C@@H]1C/C2=N\OCCNC(=O)c1ccccc1	121%

Compound	Activity
CC(C)c1cc2c(cc1Br)[C@@]1(C)CCC[C@@](C)(C(=O)O)[C@@H]1C/C2=N\OCCCCCCNC(=O)c1cccs1	97.2%
CCc1ccc(C(=O)NCCO/N=C2\C[C@H]3[C@](C)(C(=O)O)CCC[C@]3(C)c3cc(Br)c(C(C)C)cc32)cc1	68%
CC(C)c1cc2c(cc1Br)[C@@]1(C)CCC[C@@](C)(C(=O)O)[C@@H]1C/C2=N\OCCNC(=O)c1ccco1	151%
CC(C)c1cc2c(cc1Br)[C@@]1(C)CCC[C@@](C)(C(=O)O)[C@@H]1C/C2=N\OCCNC(=O)c1cccc(C(F)(F)F)c1	113%
CC(C)c1cc2c(cc1Br)[C@@]1(C)CCC[C@@](C)(C(=O)O)[C@@H]1C/C2=N\OCCNC(=O)c1ccc(Cl)s1	103%
COc1cccc(C(=O)NCCO/N=C2\C[C@H]3[C@](C)(C(=O)O)CCC[C@]3(C)c3cc(Br)c(C(C)C)cc32)c1	90.4%
CC(C)c1cc2c(cc1Br)[C@@]1(C)CCC[C@@](C)(C(=O)O)[C@@H]1C/C2=N\OCCCCCNC(=O)c1cccs1	104%
CC(C)c1cc2c(cc1Br)[C@@]1(C)CCC[C@@](C)(C(=O)O)[C@@H]1C/C2=N\OCCNC(=O)c1cccs1	267%
O=c1[nH]c2cc(C(F)(F)F)ccc2n1-c1cc(C(F)(F)F)ccc1O	268%
CC(C)c1cc2c(cc1Br)[C@@]1(C)CCC[C@@](C)(C(=O)O)[C@@H]1C/C2=N\OCCNC(=O)c1ccsc1	128%
CC(C)c1cc2c(cc1Br)[C@@]1(C)CCC[C@@](C)(C(=O)O)[C@@H]1C/C2=N\OCCNC(=O)c1ccccc1C(F)(F)F	123%
CC(C)c1cc2c(cc1Br)[C@@]1(C)CCC[C@@](C)(C(=O)O)[C@@H]1C/C2=N\OCCNC(=O)c1cc2ccccc2[nH]1	89%
CC(C)c1cc2c(cc1Br)[C@@]1(C)CCC[C@@](C)(C(=O)O)[C@@H]1C/C2=N\OCCCNC(=O)c1cccs1	136%
CC(C)c1cc2c(cc1Br)[C@@]1(C)CCC[C@@](C)(C(=O)O)[C@@H]1C/C2=N\OCCNC(=O)C1CC1	149%
CC(C)c1cc2c(cc1Br)[C@@]1(C)CCC[C@@](C)(C(=O)O)[C@@H]1C/C2=N\OCCNC(=O)c1ccc[nH]1	124%
CC(C)c1cc2c(cc1Br)[C@@]1(C)CCC[C@@](C)(C(=O)O)[C@@H]1C/C2=N\OCCNC(=O)c1cc2ccccc2s1	85.7%
